Data on one compound can be found in PMC6003189, “Molecular and biochemical characterization of a novel isoprene synthase from Metrosideros polymorpha” (BMC Plant Biology, 2018).

For the experiment, the system named is T1, MpIspS.
T1 construct: gene IspS
To be noted: 50 mM MOPS pH 6.0, 5 mM Mn^2+, 50 °C, 10 min; fit below 15 mM DMAPP.

A word on the Km: it is the concentration of substrate that gives half-maximal velocity. For the compound `CC(C)=CCOP(=O)(O)OP(=O)(O)O` [DMAPP], the Km was found to be 8.11 mM.
